Laboratory results from patent US9862724B2, “Pyrazolo[1,5-a]pyrimidine-based compounds, compositions comprising them, and methods of their use” (LEXICON PHARMACEUTICALS, INC., priority 2013, dated 2018).
Where two headings read alike, the source gives them in different places.

Molecular target: T1, AAK1 (Homo sapiens, UniProt Q2M2I8)
T1 construct: expressed in transfected cells; host or cells: HEK293F
Assay: HEK281 cell-based assay (phospho-mu2 Western blot in transfected HEK293F cells)
Conditions: HEK293F cells transfected with human AAK1 and AP2M1, 3 hours, read-out: CBA IC50
Procedure: HEK293F cells were cultured in media containing DMEM (Gibco, cat. #11965), 10% FBS (SAFC Biosciences, cat. #12103C), 1×GPS (glutamine, penicillin and streptomycin). On day one, cells were plated on a 10 cm dish so that they are ˜80% confluent at time of transfection. Roughly 12 million cells were in a 10 cm dish at time of transfection. On day two, each dish was transfected with 48 ug DNA and 144 ul Lipofectamine 2000 (Invitrogen, cat.#11668-019). The DNA was comprised of a mixture (per 10 cm dish) containing 3 ug AAK1/HA/pIRES (full length human, NCBI accession no. NP_055726.2), 45 μg Flag/AP2MI/pcDNA (full length human), and 1.5 ml OPTI-MEM. The Lipofectamine 2000 is made up of a mixture (per 10 cm dish) containing 144 μl Lipofectamine 2000 and 1.5 ml OPTI-MEM. Each mixture was transferred to individual 15 ml tubes and incubated at room temperature for 5 minutes, and then the two mixes were combined and incubated at room temperature for 20 minutes. Growth media was then aspirated from each 10 cm plate and replaced with 10 ml of DMEM+10% FBS (no GPS). Finally, 3 ml DNA/Lipofectamine mix was added to each 10 cm dish and mix gently followed by incubate of plate overnight at 37° C. and 5% CO2.
On day three, compounds were diluted in 100% DMSO at 1000× final concentration, followed by 3-fold serial dilutions for a total of 5 concentrations tested. Four compounds were tested per 10 cm dish. One ul of each compound dilution was then pipetted into a deep-well, 96-well plate, followed by addition of 500 μl DMEM+0.5% FBS into each well for a 2× final concentration of each compound. Cells were resuspended in a 10 cm dish by simple pipetting (HEK293 cells come off the plate that easy at this point) and then transferred to a 50 ml conical tube and pelleted by centrifugation at 1000 rpm for 5 min. Cell pellets were then resuspended in 2.75 ml DMEM+0.5% FBS per 10 cm dish and 100 μl of cell suspension transferred into each well of 96-well TC plate. Finally, 100 μl of 2× compound diluted in DMEM+0.5% FBS was then added into wells containing cell suspension for a 1× final concentration. Plates were then incubated at 37° C. and 5% CO2 for 3 hours followed by transferring of cell suspensions from each well into 12-tube PCR strips. The PCR strips were spun in a tip rack at 1000 rpm for 5 minutes to pellet cells and media was then removed by pipetting without disturbing the cell pellet.
To prepare for Western Blot analysis, cell pellets were resuspend in 40 ul 1×LDS-PAGE sample buffer (Invitrogen, cat.# NP0008)+2× Halt phophatase and protease inhibitor cocktail (Thermo Scientific, cat.#1861284), followed by sonicating each with microtip sonicator set at 5 for 8-10 seconds. Five ul of 10× NuPage Sample Reducing Agent (with […]) was to each sample followed by heat denaturing at 70 C for 10 min on PCR machine. A total of 10 μl per sample was loaded into each lane of a 4-20% Tris-Glycine Criterion 26-well gel (Biorad, cat.#345-0034) for the phospho-mu2 blot and 10 μl per lane in a 4-12% Bis-Tris (+MES buffer) NuPAGE 26-well gel (Invitrogen, cat.# WG1403BX10) for the mu2 blot. For controls, 2 ng of phospho-mu2 or 20 ng mu2/Flag proteins were loaded in the last well of each gel. After SDS-PAGE, samples on each gel were transferred to PVDF membrane using an iBlot and membranes were blocked for one hour in TBST+5% milk, followed by wash 3× for 5-10 min with TBST. Criterion gels were probed with rabbit anti-phospho-mu2 (1:5000; a rabbit polyclonal antibody produced by New England Peptide and affinity purified at Lexicon) in TBST+5% BSA, whereas, NuPAGE gels were probed with mouse anti-Flag (1:500; Sigma, cat.# F1804) in TBST+5% milk, and these primary antibodies were incubated overnight at 4° C. on a rocker. […]

T1 sequence (Q2M2I8 1-863 isoform Q2M2I8-2): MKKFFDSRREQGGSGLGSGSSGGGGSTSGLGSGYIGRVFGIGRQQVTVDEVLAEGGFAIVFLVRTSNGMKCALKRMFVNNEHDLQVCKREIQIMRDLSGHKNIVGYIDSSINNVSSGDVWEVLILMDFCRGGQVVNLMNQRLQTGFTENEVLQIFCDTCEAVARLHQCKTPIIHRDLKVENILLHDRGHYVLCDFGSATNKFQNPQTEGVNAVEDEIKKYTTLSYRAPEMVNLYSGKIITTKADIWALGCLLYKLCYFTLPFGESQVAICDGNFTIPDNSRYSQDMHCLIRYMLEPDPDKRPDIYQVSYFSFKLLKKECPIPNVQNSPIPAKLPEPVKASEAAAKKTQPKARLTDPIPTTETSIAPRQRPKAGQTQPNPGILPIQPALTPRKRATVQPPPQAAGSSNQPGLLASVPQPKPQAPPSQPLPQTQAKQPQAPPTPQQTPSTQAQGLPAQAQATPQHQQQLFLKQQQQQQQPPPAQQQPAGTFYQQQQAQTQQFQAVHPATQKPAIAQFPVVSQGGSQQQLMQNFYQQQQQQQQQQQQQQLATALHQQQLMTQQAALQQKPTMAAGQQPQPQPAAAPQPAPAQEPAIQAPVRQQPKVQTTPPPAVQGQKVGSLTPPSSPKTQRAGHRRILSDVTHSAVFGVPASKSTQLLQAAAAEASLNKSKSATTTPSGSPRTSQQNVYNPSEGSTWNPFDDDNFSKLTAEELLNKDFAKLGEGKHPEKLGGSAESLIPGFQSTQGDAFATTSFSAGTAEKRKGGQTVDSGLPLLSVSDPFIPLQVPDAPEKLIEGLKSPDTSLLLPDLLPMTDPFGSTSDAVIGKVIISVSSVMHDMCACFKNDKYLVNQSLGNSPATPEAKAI

Structure (SMILES)	IC50 (class symbols) [µM]	IC50 (numeric bounds) [µM]
CC(C)CCn1ccc(-c2ccn3ncc(C(F)(F)F)c3n2)cc1=O [1-isopentyl-4-(3-(trifluoromethyl)pyrazolo[1,5-a]pyrimidin-5-yl)pyridin-2(1H)-one]	≤ 0.1	
CC(C)CCn1ccc(-c2ccn3nccc3n2)cc1=O [1-isopentyl-4-(pyrazolo[1,5-a]pyrimidin-5-yl)pyridin-2(1H)-one]	≤ 0.1	
CC(C)CCn1ccc(-c2ccn3ncc(Cl)c3n2)c(Cl)c1=O [3-chloro-4-(3-chloropyrazolo[1,5-a]pyrimidin-5-yl)-1-isopentylpyridin-2(1H)-one]	≤ 0.1	
CC(C)(C)CCn1ccc(-c2ccn3ncc(Br)c3n2)cc1=O [4-(3-bromopyrazolo[1,5-a]pyrimidin-5-yl)-1-(3,3-dimethylbutyl)pyridin-2(1H)-one]	≤ 0.1	
C1=C(c2ccn3nccc3n2)CCNC1 [5-(1,2,3,6-tetrahydropyridin-4-yl)pyrazolo[1,5-a]pyrimidine]		> 0.3
CC(C)Oc1cc(-c2ccn3ncc(CO)c3n2)ccn1 [(5-(2-isopropoxypyridin-4-yl)pyrazolo[1,5-a]pyrimidin-3-yl)methanol]		> 0.3
COc1ncccc1-c1cnn2ccc(-c3ccc(C(=O)OC(C)C)cc3)nc12 [isopropyl 4-(3-(2-methoxypyridin-3-yl)pyrazolo[1,5-a]pyrimidin-5-yl)benzoate]	≤ 0.01	
CC(C)OC(=O)c1ccc(-c2ccn3ncc(Br)c3n2)cc1 [isopropyl 4-(3-bromopyrazolo[1,5-a]pyrimidin-5-yl)benzoate]	≤ 0.1	
CC(C)OC(=O)c1ccc(-c2ccn3ncc(I)c3n2)cc1 [isopropyl 4-(3-iodopyrazolo[1,5-a]pyrimidin-5-yl)benzoate]	≤ 0.1	
CC(C)OC(=O)c1ccc(-c2ccn3nccc3n2)cc1 [isopropyl 4-(pyrazolo[1,5-a]pyrimidin-5-yl)benzoate]	≤ 1	
COc1ncccc1-c1cnn2ccc(CCCN(C)C(=O)OC(C)C)nc12 [isopropyl (3-(3-(2-methoxypyridin-3-yl)pyrazolo[1,5-a]pyrimidin-5-yl)propyl)(methyl)carbamate]	≤ 0.1	
COc1ncccc1-c1cnn2ccc(CCCCN(C)C(=O)OC(C)C)nc12 [isopropyl (4-(3-(2-methoxypyridin-3-yl)pyrazolo[1,5-a]pyrimidin-5-yl)butyl)(methyl)carbamate]	≤ 0.1	
CC(C)OC(=O)N(C)CCCCc1ccn2ncc(Br)c2n1 [isopropyl (4-(3-bromopyrazolo[1,5-a]pyrimidin-5-yl)butyl)(methyl)carbamate]		> 0.3
CC(C)(C)OC(=O)N1CC=C(c2ccn3nccc3n2)CC1 [tert-butyl 4-(pyrazolo[1,5-a]pyrimidin-5-yl)-5,6-dihydropyridine-1(2H)-carboxylate]	≤ 0.1	
